Measurements: patent US9096607B2, “Tumor necrosis factor inhibitors” (THE TRUSTEES OF THE UNIVERSITY OF PENNSYLVANIA, priority 2005, dated 2015)

What was measured:
TNF-R1 = target: T1, TNF-R1 (Homo sapiens, UniProt P19438); experiment: Acrylamide quenching of intrinsic tryptophan fluorescence of TNF-R1 (Stern-Volmer); type: binding; conditions: test compound 20 μM, 5 μM TNF-R1; TNF-R1 alone 14.4±0.2 M^−1
T1 construct: The ectodomain of wild type TNF receptor 1 was obtained by PCR from pKP13; made in house
T1 sequence (P19438 30-211 limits assumed): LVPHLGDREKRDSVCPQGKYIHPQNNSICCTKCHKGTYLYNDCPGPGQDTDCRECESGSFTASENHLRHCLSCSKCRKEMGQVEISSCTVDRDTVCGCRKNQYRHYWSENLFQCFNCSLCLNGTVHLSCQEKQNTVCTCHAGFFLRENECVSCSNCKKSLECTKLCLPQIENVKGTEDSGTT
Procedure: The residue W107 in the WP9 loop fluoresces around 340 nm. In this set of experiments, the resultant concentration of quencher ranged up to 0.25 M, quenching 77.4% of the total intrinsic fluorescence of TNF-R1. […] Thus binding of 1-9 to the receptor changed the disposition of tryptophan-107.
Quenching experiments with acrylamide were performed in stirred cells, at 25° C., titrating from a stock of 1 M acrylamide by adding 2.5 μl of acrylamide each time. Recombinant TNF-R1 were at the concentration of 5 μM in 1% DMSO. Tryptophan emission, monitored at 340 nm, was observed using 295 nm excitation. Intensity data following quencher additions were averaged over a 10-sec collection and were corrected for background emission (paired control lacking of protein). Intensities, F, at given quencher concentration, [Q], were analyzed using the Stern-Volmer equation, F0/F=1+KS.V·[Q] • Where F0 is the emission intensity of the protein in the absence of quencher, and KS.V is the Stern-Volmer constant for quenching, given by the slope when data are plotted as Fo/F versus [Q].
For synthesized small molecules, a test compound at 20 μM was pre-incubated with 5 μM TNF-R1 in 1% DMSO for 30 min, and titrated with 1 M acrylamide the same way as TNF-R1 alone. The F0/F was analyzed using the Stern-Volmer equation, and two slopes from TNF receptor and from TNF receptor with the test compound were compared.

[1] = tested on: TNF-α signaling in THP1 cells; experiment: Inhibition of TNF-α signaling in THP1 cells (western blot); type: cell-based, Human; conditions: 2 hr pretreatment
Procedure: THP1 cells (Human acute monocytic leukemia cell line, American Type Culture Collection, Manassas, Va.) were cultured in RPMI with the supplement of 50 mM HEPES, 1 mM Na Pyruvate, 50 μM of 2-ME, 2.5 mg/mL of glucose, […] of gentamicin and 10% of FBS. Cells were cultured in 12-well plate at a density of 6×10^5/well with supplement of 100 ng/mL PMA. Cells were plated 72 hrs to differentiate. Cells were then pretreated with or without small molecule for 2 hr, followed by treatment with TNF-α at 20 ng/mL at the indicated periods. Cells were then lysed and analyzed by western blotting in the same manner as described above for L929 cells.

CC(=O)Oc1ccc(C(C)(c2ccc(OC(C)=O)cc2)c2ccc(OC(C)=O)cc2)cc1 [Compound I-9, 1,1,1-Tris-(4-acetoxyphenyl)ethane]
Stern-Volmer constant for TNF-R1 quenching by acrylamide in the presence of the test compound (TNF-R1): 11.6 ± 0.2 M⁻¹
TNF-α mediated I-kBα phosphorylation [1]: inhibited
TNF-α mediated p38 phosphorylation [1]: inhibited
